Measured values reported in patent publication US4704451A, “Mitogenic peptides” (Washington University, priority 1985, dated 1987).

Legend:
[1] = test system: J774 murine macrophage-like cells; assay: 3[H]-TdR incorporation in growth-arrested J774 cells; type: cell-based
Description: (§1) The growth stimulation of macrophage-like cells can be determined by measuring the thymidine uptake of the cells at varying concentrations of the mitogenic peptides of the present invention. This was determined for several macrophage-like cell lines including J774, P388Dl, RAW and PU5. These are well-known murine cell lines available, for example, from the American Type Culture Collection, Rockville, Md.
(§2) ^3 [H]-TdR incorporation. Various cell lines were plated in Dulbeccos's Modified Eagle Medium (DMEM) containing 10% fetal calf serum (FCS) in […] humidified atmosphere at 37° C. at an initial density of 5×10^5 per well in 24 well disposable plastic plates (Falcon, Oxnard, Calif.). Arrest of DNA synthesis (i.e., G0 /G1) was achieved by incubating the cells for 48 hours in serum-free DMEM containing 0.1% bovine serum albumin (BSA). The cells were then exposed to the peptide or to various […], or to FCS for 48 hours. Enhanced thymidine incorporation was assessed following a 2 hour pulse of N-methyl^3 [H]-TdR (1 μCi/ml). The cells were washed ×3 in PBS (phosphate buffered saline, pH 7.4) at 4, precipitated with 10% trichloroacetic acid (30 min at 4) and the insoluble material extracted ×2 with ETOH:ET2 O (3:1 v/v). The precipitate was solubilized in N NaOH and aliquots withdrawn for protein determinations using a dye-binding assay (Bio Rad Labs., Richmond, Calif.) and liquid scintillation spectrometry.
The various cell lines employed in these tests were the murine macrophage-like cell lines J774, P388D1, RAW and PU5. The various […] used in these tests were platelet-derived growth factor (PDGF), epidermal growth factor (EGF), fibroblast growth factor (FGF), and nerve growth factor (NGF). For background information on these known polypeptide growth factors, see, for example, the recent review article by Kris is et al., Biotechnology, February 1985, pp. 135-140; and the comprehensive review in Hormonal Proteins and Peptides, Ed. by Choh Hao Li, Vol. 12, "Growth Factors," Academic Press, 1984. EGF, NGF and FGF are commercially available from Biomedical Technologies, Cambridge, Mass. In a representative test, 24 hours following exposure of the growth-arrested cells to optimal concentrations of the peptide (i.e., 10^-8 M), cell numbers increased approximately two-fold from a control value of […] cells/culture well. […] The results are set forth in FIG. 2 and in Table I, below. In FIG. 2, the baseline tritiated thymidine (^3 [H]-TdR) incorporation in quiescent J774 cells was 5000 cpm±420 s.e.m. (standard error of the mean) per well. The results are expressed as the mean of triplicate determinations.

macrophage-like cells = assay: Mitogenic activity for macrophage-like cells; type: cell-based
Description: as §1

[2] = test system: P388D1 macrophage-like cell line; assay: 3[H]-TdR incorporation in growth-arrested P388D1 cells; type: cell-based, murine; conditions: test (2), P388D1, 10^-7 M (optimal concentration), mean ± s.e.m.
Description: as §1
(§3) ^3 [H]-TdR incorporation. Various cell lines were plated in Dulbeccos's Modified Eagle Medium (DMEM) containing 10% fetal calf serum (FCS) in […] humidified atmosphere at 37° C. at an initial density of 5×10^5 per well in 24 well disposable plastic plates (Falcon, Oxnard, Calif.). Arrest of DNA synthesis (i.e., G0 /G1) was achieved by incubating the cells for 48 hours in serum-free DMEM containing 0.1% bovine serum albumin (BSA). The cells were then exposed to the peptide or to various […], or to FCS for 48 hours. Enhanced thymidine incorporation was assessed following a 2 hour pulse of N-methyl^3 [H]-TdR (1 μCi/ml). […]
(§4) The various cell lines employed in these tests were the murine macrophage-like cell lines J774, P388D1, RAW and PU5. […] The results are expressed as the mean of triplicate determinations.

[3] = test system: RAW macrophage-like cell line; assay: 3[H]-TdR incorporation in growth-arrested RAW cells; type: cell-based, murine; conditions: test (2), 10^-8 M (optimal concentration), mean ± s.e.m.
Description: as §1, §3, §4

[4] = test system: PU5 macrophage-like cell line; assay: 3[H]-TdR incorporation in growth-arrested PU5 cells; type: cell-based, murine; conditions: test (2), PU5, 10^-6 M (optimal concentration), mean ± s.e.m.
Description: as §1, §3, §4

[5] = test system: murine macrophage-like cell lines J774, P388D1, RAW and PU5; assay: Cell number (proliferation) of growth-arrested macrophage-like cells; type: cell-based; conditions: 24 hours after exposure of growth-arrested cells to 10^-8 M (optimal concentration)
Description: as §2
as §4, with “PU5. The various […] used in these tests were platelet-derived growth factor (PDGF), epidermal growth factor (EGF), fibroblast growth factor (FGF), and nerve growth factor (NGF).” for “PU5.”

[6] = test (1), J774, >500 ng per well (highest concentration tested), mean ± s.e.m.

fibroblast growth factor [FGF]
3[H]-TdR Incorporation/mg Protein (% Increase) [1, 6]: 0 ± 0.4 % Increase

H-TENDLL-OH [Peptide III, H-Thr-Glu-Asn-Asp-Leu-Leu-OH]
mitogenic activity for macrophage-like cells (macrophage-like cells): inactive

platelet-derived growth factor [PDGF]
3[H]-TdR Incorporation/mg Protein (% Increase) [1, 6]: 9.4 ± 0.3 % Increase

nerve growth factor [NGF]
3[H]-TdR Incorporation/mg Protein (% Increase) [1, 6]: 0 ± 0.5 % Increase

H-YPPWNKNFTENDLL-OH [Peptide I, H-Tyr-Pro-Pro-Trp-Asn-Lys-Asn-Phe-Thr-Glu-Asn-Asp-Leu-Leu-OH]
3[H]-TdR Incorporation/mg Protein (% Increase) ([1]; test (1), J774, 10^-8 M (optimal concentration), 48 h exposure, mean ± s.e.m. of triplicate cultures): 140± 8.5 % Increase | 3[H]-TdR Incorporation/mg Protein (% Increase) ([1]; test (2), J774, 10^-8 M (optimal concentration), mean ± s.e.m.): 190± 12 % Increase | 3[H]-TdR Incorporation/mg Protein (% Increase) [2]: 226± 22 % Increase | 3[H]-TdR Incorporation/mg Protein (% Increase) [3]: 276± 18 % Increase | 3[H]-TdR Incorporation/mg Protein (% Increase) [4]: 112± 4.4 % Increase | increase of cell numbers over control [5]: approximately two-fold

epidermal growth factor [EGF]
3[H]-TdR Incorporation/mg Protein (% Increase) [1, 6]: 5.2 ± 0.2 % Increase

H-NKNFTENDLL-OH [Peptide IV, H-Asn-Lys-Asn-Phe-Thr-Glu-Asn-Asp-Leu-Leu-OH]
mitogenic activity for macrophage-like cells (macrophage-like cells): inactive
